Reference: patent US20110045032A1 (priority 2001, published 2011)
Entries after “also recorded” stand apart in the source; their conditions may differ.

What was measured:
[1] = tested on: dust mite-sensitized rabbits; experiment: Lung histology (Example 26); format: in vivo; details: blinded veterinary pathologist, scale of 0 to 4; vs vehicle control
Description: This study defines the effect of 7 days of treatment with DHEA-S on allergen-induced bronchial hyperresponsiveness (BHR), early and late phase responses, and pulmonary inflammation in dust mite-sensitized rabbits. Baseline BHR and inflammation were first determined. DHEA-S (5 mg/ml, 2 ml nebulized) or an equivalent volume of vehicle was delivered once per day via nebulization through a pediatric facemask covering the nose and mouth on days 1 through 7. On day 8, 24 hours after the last treatment, allergen challenge, pulmonary function testing and BALF were performed. On day 9, 24 hours after allergen challenge a histamine challenge was performed and the lungs removed for histology. The study includes 5 animals studied under a crossover design. […]
Effects on interstitial inflammation were evaluated by histology. A veterinary pathologist evaluated hematoxylin and eosin stained sections in a blinded manner. Sections were scored for inflammatory parameters using a scale of 0 to 4 with 0 representing no finding and 4 representing severe. […] All of the following parameters were scored lower in the DHEA-S treated lungs compared to the vehicle control group: cuffing of the airways and blood vessels by inflammatory cells, bronchial-associated lymphoid tissue hyperplasia, and bronchitis/bronchiolitis. […]

[2] = Serum and BAL DHEA and DHEA-S levels (Example 26); format: in vivo, rabbits; details: rabbit, serum, inhaled, 10 mg/day; twenty-four hours after the last of seven daily treatments; prior 4.7
Description: (§1) This study defines the effect of 7 days of treatment with DHEA-S on allergen-induced bronchial hyperresponsiveness (BHR), early and late phase responses, and pulmonary inflammation in dust mite-sensitized rabbits. Baseline BHR and inflammation were first determined. DHEA-S (5 mg/ml, 2 ml nebulized) or an equivalent volume of vehicle was delivered once per day via nebulization through a pediatric facemask covering the nose and mouth on days 1 through 7. On day 8, 24 hours after the last treatment, allergen challenge, pulmonary function testing and BALF were performed. On day 9, 24 hours after allergen challenge a histamine challenge was performed and the lungs removed for histology. The study includes 5 animals studied under a crossover design. There was a 3 week resting period between study arms and lungs were taken during the second treatment arm only. The treatment with DHEA-S led to the changes in the disease status of the animals described in the following paragraph.

[3] = tested on: dust mite-sensitized rabbits; experiment: Pulmonary function after allergen challenge, nebulized (Example 26); format: in vivo
Description: as §1
Effects on airway obstruction were measured by changes in dynamic compliance and total lung resistance in response to allergen challenge. Rabbits were monitored for 6 hours following allergen challenge and the values plotted against time. Changes in dynamic compliance were determined by the % change in compliance as compared to the animal's initial saline value recorded prior to challenge. Changes in response to allergen and/or treatment were calculated using the AUC where an AUC unit is defined as % change×hour. Treatment with DHEA-S attenuated the drop in airway compliance following allergen challenge by 62% as compared to vehicle treatment. […] Variability during the early phase kept differences in AUC between the vehicle and drug treatment groups from being significant when analyzed using a paired t-test.

[4] = tested on: ragweed-sensitized mice; experiment: Bronchial hyperresponsiveness to methacholine, whole-body plethysmograph (Example 28); format: in vivo
Description: (§2) Two groups of mice were sensitized with two intraperitoneal injections and one intranasat administration of ragweed allergen (Ambrosia artemistifolia) on days 0, 4 and 11 respectively. A third group was treated similarly with saline to serve as non-allergic controls. The next two days, the treatment group animals were exposed to DHEA-S delivered as an aerosol (5 mg/ml suspension in saline, 2 ml nebulized) using the whole-body plethysmograph system (Buxco Electronics, Inc., Sharon, Conn.) and a DeVilbiss ultrasonic nebulizer. Twenty-four hours after the last drug exposure, mice were challenged with increasing concentrations of methacholine to determine bronchial hyperresponsiveness and then lavaged to determine relative changes in cell populations in BAL fluid.
The ragweed only group responded in a dose-related fashion with increasing Penh value over the range of methacholine tested and a mean area under the curve of 7488.8.

[5] = tested on: dust mite-sensitized cynomolgus monkeys; experiment: BALF cell count after allergen challenge (Example 24); format: in vivo; details: for total leukocytes in BALF: DHEA-S treatment group
Description: This study defines the effect of 5 days of treatment with DHEA-S on allergen-induced early phase response, and pulmonary inflammation in dust mite-sensitized cynomolgus monkeys. Baseline parameters were measured the week prior to treatment. DHEA-S (5 mg/ml, 2 ml nebulized) or an equivalent volume of saline was delivered once per day via nebulization (Pari LC+) through a canine facemask covering the nose and mouth on days 1 through 5. Allergen challenge and pulmonary function testing were performed on day 3 several hours after drug treatment, and broncho-alveolar lavage fluid BALF) was collected 48 hours post-challenge. The study includes 6 animals studied under a crossover design with a minimum of 4 weeks rest between study arms. The treatment with DHEA-S led to the following changes in the disease status of the animals: […]

[6] = tested on: dust mite-sensitized rabbits; experiment: BALF cell count, nebulized (Example 26); format: in vivo
Description: as §1

[7] = tested on: dust mite-sensitized rabbits; experiment: Bronchial hyperresponsiveness to histamine (Example 27); format: in vivo
Description: This follow-up study compared the effects of DHEA-S and Puimicort® (budesonide inhalation suspension) on allergen-induced bronchial hyperresponsiveness (BHR) to histamine and pulmonary inflammation in dust mite-sensitized rabbits. The study included 18 animals divided into 3 treatment groups: saline, DHEA-S, and Puimicort. The animals were treated for once per day for 5 consecutive days via nebulization through a pediatric facemask covering the nose and mouth. Treatments were DHEA-S, 10 mg/day (5 mg/ml), Pulmicort Respules, 0.5 mg/day (0.5 mg/2 ml, note: this is the standard human dose) or saline (2 ml). A dust mite challenge was performed on day 4, and development of airway inflammation was assessed 6 hours and 30 hours after dust mite challenge. Histamine sensitivity was assessed 30 hours after challenge (day 5) and the lungs removed for histology.
There was an increase in the area under the curve of 17.42, which means the animals became more sensitive to histamine following allergen exposure. […] The resulting change in the area under the curve was −4.52 and −6.70 for DHEA-S and Puimicort, respectively, this means that animals treated with DHEA-S or Pulmicort were less sensitive to histamine following allergen exposure.

[8] = tested on: dogs; experiment: Acute inhalation toxicity in dogs; format: in vivo; details: inhalation
Description: (§3) Other findings were minor in nature and detailed in the reports that follow. Therefore, nebulization of an aqueous solution was determined to be feasible but not practical due to the inability to achieve a sufficient safety factor to support clinical trials.

[9] = Acute inhalation toxicity in dogs; format: in vivo; details: dog, in vivo, inhaled; preclinical toxicology studies; not achieved at this dose; read-out: maximum tolerated dose
Description: as §3

[10] = tested on: ragweed-sensitized mice; experiment: BAL cell populations after methacholine challenge (Example 28); format: in vivo; details: Ragweed alone 13.8%; P<0.05
Description: as §2

[11] = 48 hours after allergen challenge, compared to saline
[12] = 6 hours after allergen-challenge, compared to vehicle control

CC12CCC3C(CC=C4CC(OS(=O)(=O)[O-])CCC43C)C1CCC2=O.[Na+] (stereo not drawn) [DHEA-S, Dehydroepiandrosterone sulfate]
histological evaluation of airway inflammation [1]: reduced inflammatory cell cuffing of the vessels and bronchi, bronchus-associated lymphoid tissue hyperplasia, and epithelial sloughing; also recorded: scored lower | concentration at 24 h after the last dose [2]: 49 ng/mL | total AUC for airway resistance ([3]; 6 hours, control 315): 377 | PC50 histamine ([3]; 48 hours after the last administration, control 0.84): 0.86 mg/mL | tolerance of pulmonary function testing and histamine challenges ([3]; 7 days of treatment via facemask, qualitative): better than vehicle-treated animals | effect on airway resistance changes ([3]; in the 6 hours after aerosol dust mite challenge): no significant effect | attenuation of the drop in airway compliance following allergen challenge ([3]; nebulized 5 mg/ml, 2 ml once per day, 7 days, compared to vehicle treatment): 62% | nasal congestion following histamine and dust mite challenges ([3]; rabbit, in vivo): no evidence of nasal congestion | reduction of area under the curve (AUC) of the methacholine response ([4]; aerosol 5 mg/ml suspension, 2 ml nebulized, two days): 46% | mean area under the curve of Penh response to methacholine ([4]; ragweed only 7488.8, non-allergic saline 2646.8): 4038.0 | decrease of % eosinophils in BALF [5, 11]: approximately 57% | decrease of percentage of neutrophils in BALF [5, 11]: 42% | eosinophil numbers in BALF less than saline ([5]; 48 hours after allergen challenge, did not reach significance): approximately 64% | eosinophil numbers in BALF ([5]; 48 hours after allergen challenge, saline 4.3±1.7): 1.6±0.8 ×10^4 cells/ml | total leukocytes in BALF ([5]; 48 hours after allergen challenge): 39.4 ×10^4 cell/ml | total leukocytes in BALF ([5]; before allergen challenge): 34.5 ×10^4 cell/ml | absolute number of neutrophils in BALF ([5]; after allergen challenge): 9.7±2.2 ×10^4 cells/ml | neutrophil influx level vs pre-challenge ([5]; cynomolgus monkey, in vivo): not significantly higher than pre-challenge levels | percentage of eosinophils before and after allergen challenge ([5]; cynomolgus monkey, in vivo): not significantly different | lower numbers of eosinophils in BALF [6, 12]: 52% | lower numbers of macrophages in BALF [6, 12]: 68% | lower numbers of neutrophils in BALF [6, 12]: 69% | effect on BALF cell numbers ([6]; 24 hours after dust mite challenge): not significant | decrease of inflammatory cell migration into the BAL fluid ([6]; rabbit, in vivo): 68% | eosinophils in BAL fluid ([6]; six hours after dust mite challenge, vehicle 8): 4 ×10^4 eosinophils/ml | third cell count in BAL fluid (cell type not given) ([6]; six hours after dust mite challenge, vehicle 37): 12 ×10^4 | neutrophils in BAL fluid ([6]; six hours after dust mite challenge, vehicle 94): 29 ×10^4 neutrophils/ml | change in the area under the histamine dose-response (resistance) curve [7]: −4.52 | histamine response curve ([7]; 30 hours after challenge): tended to shift the histamine response curve downward | maximum tolerated dose [8]: could not be achieved | adverse effects to the respiratory tract ([8]; up to the maximum feasible dose): did not produce any adverse affects | MTD [9]: > 2 mg/kg/day | percent neutrophils in BAL [10]: 3.2%
